Reference: ChEMBL document CHEMBL1139244, “Synthesis and antifungal activity of 1H-pyrrolo[3,2-g]quinoline-4,9-diones and 4,9-dioxo-4,9-dihydro-1H-benzo[f]indoles” (2009)
Values after ≈ are worked out from the molar mass of the structure shown.

Legend:
Assay type in all cases: functional
Aspergillus niger = test: Antifungal activity against Aspergillus niger KCTC 1231 after 2 days; conditions: KCTC 1231, 48 h
Candida albicans = test: Antifungal activity against Candida albicans KCCM 50235 after 1 day; conditions: KCCM 50235, 24 h
Cryptococcus neoformans = test: Antifungal activity against Cryptococcus neoformans KCCM 50564 after 1 day; conditions: KCCM 50564, 24 h
Pichia kudriavzevii = test: Antifungal activity against Candida krusei KCCM 11655 after 1 day; conditions: KCCM 11655, 24 h
Candida tropicalis = test: Antifungal activity against Candida tropicalis KCCM 50662 after 1 day; conditions: KCCM 50662, 24 h

Row | Structure (SMILES) | MIC (Aspergillus niger) | MIC (Candida albicans) | MIC (Cryptococcus neoformans) | MIC (Pichia kudriavzevii) | MIC (Candida tropicalis)
1 | N#Cc1c2c(n(-c3ccccc3)c1N)C(=O)c1ccccc1C2=O | > 100 µg/mL | 100 µg/mL (≈ 319 µM) | 100 µg/mL (≈ 319 µM) | 3.2 µg/mL (≈ 10.2 µM) | 100 µg/mL (≈ 319 µM)
2 | CCOC(=O)c1c2c(n(-c3ccc(O)cc3)c1N)C(=O)c1ncccc1C2=O | 25 µg/mL (≈ 66.3 µM) | 3.2 µg/mL (≈ 8.48 µM) | 12.5 µg/mL (≈ 33.1 µM) | 12.5 µg/mL (≈ 33.1 µM) | 0.6 µg/mL (≈ 1.59 µM)
3 | CCOC(=O)c1c2c(n(-c3ccc(Br)cc3)c1N)C(=O)c1ncccc1C2=O | 50 µg/mL (≈ 114 µM) | 50 µg/mL (≈ 114 µM) | 25 µg/mL (≈ 56.8 µM) | > 100 µg/mL | 3.2 µg/mL (≈ 7.27 µM)
4 | COC(=O)c1c2c(n(-c3ccc(C)cc3)c1N)C(=O)c1ncccc1C2=O | > 100 µg/mL | 100 µg/mL (≈ 277 µM) | 12.5 µg/mL (≈ 34.6 µM) | 12.5 µg/mL (≈ 34.6 µM) | 100 µg/mL (≈ 277 µM)
5 | Cn1c(N)c(C#N)c2c1C(=O)c1ccccc1C2=O | 25 µg/mL (≈ 99.5 µM) | 12.5 µg/mL (≈ 49.8 µM) | 12.5 µg/mL (≈ 49.8 µM) | 12.5 µg/mL (≈ 49.8 µM) | 6.3 µg/mL (≈ 25.1 µM)
6 | CCOC(=O)c1c2c(n(-c3ccccc3)c1N)C(=O)c1ncccc1C2=O | 50 µg/mL (≈ 138 µM) | > 100 µg/mL | 50 µg/mL (≈ 138 µM) | > 100 µg/mL | 6.3 µg/mL (≈ 17.4 µM)
7 | CCn1c(N)c(C#N)c2c1C(=O)c1ccccc1C2=O | 25 µg/mL (≈ 94.2 µM) | 25 µg/mL (≈ 94.2 µM) | 12.5 µg/mL (≈ 47.1 µM) | 12.5 µg/mL (≈ 47.1 µM) | 25 µg/mL (≈ 94.2 µM)
8 | CCOC(=O)c1c2c(n(-c3ccc(F)cc3)c1N)C(=O)c1ncccc1C2=O | 50 µg/mL (≈ 132 µM) | > 100 µg/mL | 25 µg/mL (≈ 65.9 µM) | > 100 µg/mL | 6.3 µg/mL (≈ 16.6 µM)
9 | CCOC(=O)c1c2c(n(-c3ccc(C)cc3)c1N)C(=O)c1ncccc1C2=O | 25 µg/mL (≈ 66.6 µM) | > 100 µg/mL | 12.5 µg/mL (≈ 33.3 µM) | 12.5 µg/mL (≈ 33.3 µM) | 3.2 µg/mL (≈ 8.52 µM)
10 | OC(Cn1cncn1)(Cn1cncn1)c1ccc(F)cc1F [FLUCONAZOLE] | 50 µg/mL (≈ 163 µM) | 12.5 µg/mL (≈ 40.8 µM) | 50 µg/mL (≈ 163 µM) | 25 µg/mL (≈ 81.6 µM) | 6.3 µg/mL (≈ 20.6 µM)
11 | COC(=O)c1c2c(n(-c3ccc(OC)cc3)c1N)C(=O)c1ncccc1C2=O | 50 µg/mL (≈ 133 µM) | > 100 µg/mL | > 100 µg/mL | 12.5 µg/mL (≈ 33.1 µM) | > 100 µg/mL
12 | COC(=O)c1c2c(n(-c3ccccc3)c1N)C(=O)c1ncccc1C2=O | 50 µg/mL (≈ 144 µM) | > 100 µg/mL | > 100 µg/mL | 50 µg/mL (≈ 144 µM) | > 100 µg/mL
13 | CCOC(=O)c1c2c(n(-c3ccc(F)c(F)c3)c1N)C(=O)c1ncccc1C2=O | 25 µg/mL (≈ 62.9 µM) | 1.6 µg/mL (≈ 4.03 µM) | 50 µg/mL (≈ 126 µM) | 25 µg/mL (≈ 62.9 µM) | 50 µg/mL (≈ 126 µM)
14 | CCOC(=O)c1c2c(n(-c3ccc(C(F)(F)F)cc3)c1N)C(=O)c1ncccc1C2=O | 12.5 µg/mL (≈ 29.1 µM) | 6.3 µg/mL (≈ 14.7 µM) | 12.5 µg/mL (≈ 29.1 µM) | 6.3 µg/mL (≈ 14.7 µM) | 0.8 µg/mL (≈ 1.86 µM)
15 | Nc1nc(=O)[nH]cc1F [FLUCYTOSINE] | 50 µg/mL (≈ 387 µM) | 6.3 µg/mL (≈ 48.8 µM) | 12.5 µg/mL (≈ 96.8 µM) | 6.3 µg/mL (≈ 48.8 µM) | 12.5 µg/mL (≈ 96.8 µM)
16 | Cc1ccc(-n2c(N)c(C#N)c3c2C(=O)c2ccccc2C3=O)cc1 | > 100 µg/mL | > 100 µg/mL | 100 µg/mL (≈ 305 µM) | 3.2 µg/mL (≈ 9.78 µM) | > 100 µg/mL
17 | Nc1ccc(O)c2ncccc12 | > 100 µg/mL | > 100 µg/mL | 100 µg/mL (≈ 624 µM) | 100 µg/mL (≈ 624 µM) | > 100 µg/mL
18 | CCOC(=O)c1c2c(n(-c3ccc(I)cc3)c1N)C(=O)c1ncccc1C2=O | 12.5 µg/mL (≈ 25.7 µM) | 25 µg/mL (≈ 51.3 µM) | 25 µg/mL (≈ 51.3 µM) | 25 µg/mL (≈ 51.3 µM) | 3.2 µg/mL (≈ 6.57 µM)
19 | CCOC(=O)c1c2c(n(-c3ccc(OC)cc3)c1N)C(=O)c1ncccc1C2=O | 25 µg/mL (≈ 63.9 µM) | > 100 µg/mL | 50 µg/mL (≈ 128 µM) | > 100 µg/mL | 12.5 µg/mL (≈ 31.9 µM)
20 | CCOC(=O)c1c2c(n(-c3ccc(Cl)cc3)c1N)C(=O)c1ncccc1C2=O | 6.3 µg/mL (≈ 15.9 µM) | > 100 µg/mL | 50 µg/mL (≈ 126 µM) | > 100 µg/mL | 3.2 µg/mL (≈ 8.08 µM)
